# In patent publication US11891425B2, “Thioamide-modified peptides and uses thereof” (THE TRUSTEES OF THE UNIVERSITY OF PENNSYLVANIA, priority 2014, dated 2024):
# Assay: not given
# Conditions: in vivo; cited from earlier work
row,Substance,half-life (in vivo / circulating)
1,"GIP: glucose-dependent insulinotropic factor, SEQ ID NO:5",less than 15 minutes

# Same assay, conditions: native peptide, DPP-4 substrate; cited from earlier work
row,Substance,half-life (in vivo / circulating)
1,"ENT: enterostatin, SEQ ID NO:47 (APGPR; listed as Homo sapiens)",5 min
2,"GHRH: growth-hormone-releasing hormone, SEQ ID NO:43",19 min
3,"NPY: neuropeptide Y, SEQ ID NO:23, 36-amino acid peptide",15 to 20 min

# Assay: FIG. 17
# Conditions: not given
# Protocol: Table printed on a drawing sheet, FIG. 17
# The patent's description of the figure: FIG. 17 illustrates systematic scanning of the effects of thioamide modification position in a peptide. The thioamide modifications were conducted at different positions of the peptide chain. The resulting peptides were mixed with either papain or trypsin enzymes to measure the changes of fluorescence intensity. The “+” sign after the peptide sequence means the presence of the corresponding enzyme. The “−” sign after the peptide sequence means the lack of the corresponding enzyme.
# First reader's note: Raised S after a residue marks the thioamide position; the half-lives are proteolytic half-lives in the presence of papain or trypsin.
Substance,Papain t1/2,Trypsin t1/2
μLLKAAA^Sμ [compound 58],5 min,2 min
μLLKAAAμ [compound 52],5 min,1 min
μLL^SKAAAμ [compound 54],180 min,2 min

# Results, then the substance that gave them:
Papain t1/2,Trypsin t1/2,Substance
4 min,2 min,μLLKAA^SAμ [compound 57]
>30 min,3 min,μLLKA^SAAμ [compound 56]
12 min,>200 min,μLLR^SAAAμ [compound 55]
4 min,4 min,μL^SLKAAAμ [compound 53]
